ChEMBL document CHEMBL3120141, “Discovery of (1R,6S)-5-[4-(1-cyclobutyl-piperidin-4-yloxy)-phenyl]-3,4-diaza-bicyclo[4.1.0]hept-4-en-2-one (R,S-4a): histamine H(3) receptor inverse agonist demonstrating potent cognitive enhancing and wake promoting activity” (Bioorg Med Chem Lett, 2014)

Tests used:
Liver microsome [1] = assay: Metabolic stability in rat liver microsomes; format: ADME
Cytochrome P450 2C19 = Cytochrome P450 2C19 (Homo sapiens, UniProt P33261); assay: Inhibition of CYP2C19 (unknown origin); format: ADME; conditions: human
Cytochrome P450 2C19, sequence (P33261 whole entry): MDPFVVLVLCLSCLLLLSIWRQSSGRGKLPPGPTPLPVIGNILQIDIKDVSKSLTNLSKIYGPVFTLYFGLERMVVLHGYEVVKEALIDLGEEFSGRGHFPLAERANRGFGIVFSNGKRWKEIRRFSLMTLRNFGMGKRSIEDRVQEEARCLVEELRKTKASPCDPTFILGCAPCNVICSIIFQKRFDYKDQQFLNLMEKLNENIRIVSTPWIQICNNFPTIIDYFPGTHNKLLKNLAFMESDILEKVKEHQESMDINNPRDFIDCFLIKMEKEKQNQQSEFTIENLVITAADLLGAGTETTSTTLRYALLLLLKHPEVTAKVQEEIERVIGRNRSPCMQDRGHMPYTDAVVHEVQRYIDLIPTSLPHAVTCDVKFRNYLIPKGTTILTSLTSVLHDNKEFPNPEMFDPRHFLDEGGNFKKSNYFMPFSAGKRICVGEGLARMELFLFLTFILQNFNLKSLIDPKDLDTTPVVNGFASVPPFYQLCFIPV

Cytochrome P450 3A4 = Cytochrome P450 3A4 (Homo sapiens, UniProt P08684); assay: Inhibition of CYP3A4 (unknown origin); format: ADME; conditions: human
Cytochrome P450 3A4, sequence (P08684 whole entry): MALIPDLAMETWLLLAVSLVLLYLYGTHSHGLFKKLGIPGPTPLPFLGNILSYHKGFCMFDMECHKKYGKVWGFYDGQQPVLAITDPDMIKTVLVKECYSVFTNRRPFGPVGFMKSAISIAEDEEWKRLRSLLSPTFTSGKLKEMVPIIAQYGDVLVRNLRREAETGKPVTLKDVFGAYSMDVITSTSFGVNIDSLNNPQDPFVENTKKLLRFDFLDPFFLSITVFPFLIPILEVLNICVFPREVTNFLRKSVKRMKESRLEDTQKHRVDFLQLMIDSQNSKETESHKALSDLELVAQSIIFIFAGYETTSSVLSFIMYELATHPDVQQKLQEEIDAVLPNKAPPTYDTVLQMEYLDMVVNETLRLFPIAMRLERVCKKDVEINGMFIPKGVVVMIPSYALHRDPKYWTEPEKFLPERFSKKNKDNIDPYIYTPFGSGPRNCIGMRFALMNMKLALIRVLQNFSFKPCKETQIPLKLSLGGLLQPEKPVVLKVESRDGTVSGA

Homo sapiens [2] = species: Homo sapiens; assay: Selectivity ratio for human histamine H3 receptor over human histamine H1 receptor
Cytochrome P450 2D6 = Cytochrome P450 2D6 (Homo sapiens, UniProt P10635); assay: Inhibition of CYP2D6 (unknown origin); format: ADME; conditions: human
Cytochrome P450 2D6, sequence (P10635 whole entry): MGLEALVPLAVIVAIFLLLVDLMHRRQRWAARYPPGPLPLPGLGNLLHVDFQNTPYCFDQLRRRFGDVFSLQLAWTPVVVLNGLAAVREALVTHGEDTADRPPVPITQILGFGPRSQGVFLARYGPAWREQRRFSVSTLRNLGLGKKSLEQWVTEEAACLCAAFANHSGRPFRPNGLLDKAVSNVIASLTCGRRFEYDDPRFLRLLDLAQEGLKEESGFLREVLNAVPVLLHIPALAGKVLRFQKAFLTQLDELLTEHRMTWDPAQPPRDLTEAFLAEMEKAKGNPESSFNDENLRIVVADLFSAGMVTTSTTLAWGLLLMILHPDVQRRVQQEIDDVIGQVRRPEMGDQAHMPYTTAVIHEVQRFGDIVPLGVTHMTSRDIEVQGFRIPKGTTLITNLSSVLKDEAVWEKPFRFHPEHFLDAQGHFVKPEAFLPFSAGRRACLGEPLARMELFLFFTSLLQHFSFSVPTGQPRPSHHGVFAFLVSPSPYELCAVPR

Histamine H3 receptor [3] = target: Histamine H3 receptor (Homo sapiens, UniProt Q9Y5N1); assay: Displacement of [3H]NAMH from human histamine H3 receptor transfected in CHO cells; format: cell-based
Histamine H3 receptor (Homo sapiens, UniProt Q9Y5N1), sequence (Q9Y5N1 whole entry): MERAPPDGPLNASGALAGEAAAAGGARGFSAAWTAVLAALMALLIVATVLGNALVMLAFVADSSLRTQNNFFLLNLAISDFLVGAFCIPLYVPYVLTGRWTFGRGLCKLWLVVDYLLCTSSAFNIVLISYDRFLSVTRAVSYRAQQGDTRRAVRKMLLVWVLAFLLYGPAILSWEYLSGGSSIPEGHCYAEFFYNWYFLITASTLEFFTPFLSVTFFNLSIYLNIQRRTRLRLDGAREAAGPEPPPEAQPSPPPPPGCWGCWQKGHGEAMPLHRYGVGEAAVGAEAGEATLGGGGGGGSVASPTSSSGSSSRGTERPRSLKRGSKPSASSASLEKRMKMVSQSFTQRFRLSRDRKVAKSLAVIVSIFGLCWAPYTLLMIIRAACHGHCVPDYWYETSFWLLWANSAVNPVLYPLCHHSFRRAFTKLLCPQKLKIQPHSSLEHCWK

Liver microsome [4] = assay: Metabolic stability in dog liver microsomes; format: ADME, Canis lupus familiaris
Homo sapiens [5] = species: Homo sapiens; assay: Selectivity ratio for human histamine H3 receptor over human histamine H4 receptor
Cytochrome P450 1A2 = target: T1, Cytochrome P450 1A2 (Homo sapiens, UniProt P05177); assay: Inhibition of CYP1A2 (unknown origin); format: ADME; conditions: human
T1 sequence (P05177 whole entry): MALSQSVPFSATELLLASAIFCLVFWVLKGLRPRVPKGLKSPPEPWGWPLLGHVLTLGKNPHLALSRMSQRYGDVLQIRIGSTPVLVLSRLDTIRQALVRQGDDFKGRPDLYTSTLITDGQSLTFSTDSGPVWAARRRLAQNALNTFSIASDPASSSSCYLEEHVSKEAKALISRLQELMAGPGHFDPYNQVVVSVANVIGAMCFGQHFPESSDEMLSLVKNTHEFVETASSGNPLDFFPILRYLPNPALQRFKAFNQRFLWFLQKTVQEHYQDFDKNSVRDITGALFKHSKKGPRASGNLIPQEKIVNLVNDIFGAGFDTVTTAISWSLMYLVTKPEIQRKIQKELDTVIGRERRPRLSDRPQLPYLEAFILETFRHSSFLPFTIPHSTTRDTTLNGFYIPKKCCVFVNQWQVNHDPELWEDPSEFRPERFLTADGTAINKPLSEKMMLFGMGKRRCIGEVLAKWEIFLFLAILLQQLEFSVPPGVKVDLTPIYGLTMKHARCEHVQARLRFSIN

[6] = Metabolic stability in mouse liver microsomes; format: ADME, Microsome
Cytochrome P450 2C9 = Cytochrome P450 2C9 (Homo sapiens, UniProt P11712); assay: Inhibition of CYP2C9 (unknown origin); format: ADME; conditions: human
Cytochrome P450 2C9, sequence (P11712 whole entry): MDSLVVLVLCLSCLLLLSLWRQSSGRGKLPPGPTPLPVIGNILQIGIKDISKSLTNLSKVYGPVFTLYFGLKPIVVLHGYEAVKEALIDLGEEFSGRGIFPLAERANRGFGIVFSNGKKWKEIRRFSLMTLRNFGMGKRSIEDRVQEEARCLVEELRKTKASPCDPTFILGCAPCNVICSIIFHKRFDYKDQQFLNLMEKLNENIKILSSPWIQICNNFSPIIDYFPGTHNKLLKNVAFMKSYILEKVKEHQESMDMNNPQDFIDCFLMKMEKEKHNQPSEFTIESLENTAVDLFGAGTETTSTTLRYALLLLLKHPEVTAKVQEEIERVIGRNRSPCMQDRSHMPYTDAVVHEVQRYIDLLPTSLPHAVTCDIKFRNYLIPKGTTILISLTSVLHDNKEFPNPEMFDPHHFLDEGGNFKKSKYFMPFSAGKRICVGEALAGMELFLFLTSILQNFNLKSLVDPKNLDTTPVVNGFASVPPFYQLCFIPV

Homo sapiens [7] = species: Homo sapiens; assay: Selectivity ratio for human histamine H3 receptor over human histamine H2 receptor
Liver microsome [8] = assay: Metabolic stability in human liver microsomes; format: ADME
Histamine H3 receptor [9] = target: Histamine H3 receptor (Rattus norvegicus, UniProt Q9QYN8); assay: Displacement of [3H]NAMH from rat histamine H3 receptor transfected in CHO cells; format: cell-based
Histamine H3 receptor (Rattus norvegicus, UniProt Q9QYN8), sequence (Q9QYN8 whole entry): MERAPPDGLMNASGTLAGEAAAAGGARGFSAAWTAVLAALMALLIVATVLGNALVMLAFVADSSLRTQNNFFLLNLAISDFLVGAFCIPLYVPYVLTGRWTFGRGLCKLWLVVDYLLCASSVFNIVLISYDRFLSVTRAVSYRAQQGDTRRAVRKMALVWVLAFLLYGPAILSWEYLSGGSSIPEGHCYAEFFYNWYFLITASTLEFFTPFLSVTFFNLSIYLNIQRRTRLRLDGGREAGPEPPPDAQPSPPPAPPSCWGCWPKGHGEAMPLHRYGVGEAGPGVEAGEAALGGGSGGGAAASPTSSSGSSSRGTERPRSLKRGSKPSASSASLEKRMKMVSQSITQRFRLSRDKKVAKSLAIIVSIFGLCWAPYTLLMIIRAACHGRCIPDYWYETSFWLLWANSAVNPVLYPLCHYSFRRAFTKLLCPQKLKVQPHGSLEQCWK

[10] = Oral bioavailability in rat; format: ADME, organism-based; conditions: in vivo

SMILES	Stability (Liver microsome [1])	inhibition (INH) (Cytochrome P450 2C19)	inhibition (INH) (Cytochrome P450 3A4)	Selectivity ratio (Homo sapiens [2])	inhibition (INH) (Cytochrome P450 2D6)	Ki (Histamine H3 receptor [3]) [nM]	Stability (Liver microsome [4])	Selectivity ratio (Homo sapiens [5])	inhibition (INH) (Cytochrome P450 1A2)	Stability [6]	inhibition (INH) (Cytochrome P450 2C9)	Selectivity ratio (Homo sapiens [7])	Stability (Liver microsome [8])	Ki (Histamine H3 receptor [9]) [nM]	bioavailability [10] [%]
O=C1NN=C(c2ccc(OC3CCN(C4CCCC4)CC3)cc2)C2CC12 (racemic)	Stable	Not Active	Not Active	> 1000	Not Active	3.7	Stable	> 1000	Not Active	Stable	Not Active	> 1000	Stable	8.1	
CCN1CCC(Oc2ccc(C3=NNC(=O)C4CC34)cc2)CC1 (racemic)						173								228	
CN1N=C(c2ccc(OC3CCN(C4CCC4)CC3)cc2)C2CC2C1=O (racemic)	Stable			> 1000		4	Stable	> 1000		Stable		> 1000	Stable	6.9	6
